Test results taken from PubChem BioAssay AID624065 (The Scripps Research Institute Molecular Screening Center, 2012).
The source made the active and inactive calls. The rule behind the calls is not given here.

What follows are molecules tested against Insulin-degrading enzyme (Homo sapiens) (UniProt P14735) (assay: IDE insulin-degradation inhibitors, late-stage follow-up, counter-screen for IDE inhibitor project, biochemical, TR-FRET, recombinant IDE (AID 624065)).
Chain of Insulin-degrading enzyme (Homo sapiens) (P14735 whole entry, looked up): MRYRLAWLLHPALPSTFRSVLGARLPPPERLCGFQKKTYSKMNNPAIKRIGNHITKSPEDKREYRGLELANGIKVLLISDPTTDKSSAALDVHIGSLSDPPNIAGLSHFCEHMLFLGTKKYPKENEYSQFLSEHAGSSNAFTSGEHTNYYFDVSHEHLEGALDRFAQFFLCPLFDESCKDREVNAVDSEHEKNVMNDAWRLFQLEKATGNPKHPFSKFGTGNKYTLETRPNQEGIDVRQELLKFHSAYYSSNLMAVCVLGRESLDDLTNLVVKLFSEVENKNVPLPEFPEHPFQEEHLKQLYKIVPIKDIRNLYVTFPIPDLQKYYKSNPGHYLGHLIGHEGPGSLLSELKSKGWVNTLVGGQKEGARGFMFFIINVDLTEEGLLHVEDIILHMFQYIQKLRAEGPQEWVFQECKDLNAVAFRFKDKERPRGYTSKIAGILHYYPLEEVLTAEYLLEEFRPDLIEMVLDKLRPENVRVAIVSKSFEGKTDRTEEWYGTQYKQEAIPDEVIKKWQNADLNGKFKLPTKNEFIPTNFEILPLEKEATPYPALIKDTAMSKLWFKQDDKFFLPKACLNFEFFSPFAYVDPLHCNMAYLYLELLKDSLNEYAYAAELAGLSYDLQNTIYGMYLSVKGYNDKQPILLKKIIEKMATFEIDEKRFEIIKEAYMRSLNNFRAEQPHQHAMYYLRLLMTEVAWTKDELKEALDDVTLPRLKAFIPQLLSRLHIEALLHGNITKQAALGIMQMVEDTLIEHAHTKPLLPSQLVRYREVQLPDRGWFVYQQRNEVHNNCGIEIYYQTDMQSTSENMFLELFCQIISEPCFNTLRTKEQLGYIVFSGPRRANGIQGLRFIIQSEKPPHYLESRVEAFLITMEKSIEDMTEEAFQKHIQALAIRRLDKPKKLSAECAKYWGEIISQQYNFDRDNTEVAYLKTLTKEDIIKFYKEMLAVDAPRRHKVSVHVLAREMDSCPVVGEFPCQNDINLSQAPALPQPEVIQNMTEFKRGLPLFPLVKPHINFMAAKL

Structure (SMILES) | IC50
O=C(Nc1ccc2oc(-c3cccnc3)nc2c1)c1ccc2c(c1)OCCO2 | > 10 µM (inactive)
Cc1ccc(C)c(N2C(=N)S/C(=C\c3ccc(-c4ccccc4C(=O)O)o3)C2=O)c1 | > 10 µM (inactive)
Clc1cccc(-c2nnc(SCc3nc4ccccc4[nH]3)n2Cc2ccco2)c1 | > 10 µM (inactive)
Cc1cccc(-c2nnc(SCc3nc4ccccc4[nH]3)n2Cc2ccco2)c1 | > 10 µM (inactive)
Nc1c(C(=O)Nc2nccs2)sc2nc(-c3cccs3)cc(C(F)(F)F)c12 | > 10 µM (inactive)
COc1cc(/C=C2\SC(=S)N(NC(C)=O)C2=O)ccc1OC(=O)c1ccco1 | > 10 µM (inactive)
COc1cccc(-c2nnc(SCc3nc4ccccc4[nH]3)n2Cc2ccco2)c1 | > 10 µM (inactive)
Cn1c(=O)c(C(=O)CN2CCCc3ccccc32)c(N)n(Cc2ccccc2)c1=O | > 10 µM (inactive)
CCN(CC)c1ccc(/C=C2\C(=N)N3N=C(CC(=O)N4CCOCC4)SC3=NC2=O)cc1 | > 10 µM (inactive)
CCOc1ccc2[nH]c3c(N4CCN(C(=O)c5ccco5)CC4)ncnc3c2c1 | > 10 µM (inactive)
O=C(C1CC1)N1CCN(c2ccnc3cc(Cl)ccc23)CC1 | > 10 µM (inactive)
O=C(O)c1ccccc1NS(=O)(=O)c1cccc(-n2sc3ccccc3c2=O)c1 | 4 µM
O=C(Nc1cccc(C(F)(F)F)c1)c1csc(-c2ccncc2)n1 | > 10 µM (inactive)
O=c1c2ccccc2sn1-c1cc(S(=O)(=O)N2CCOCC2)ccc1N1CCOCC1 | 4 µM
Cc1c(CCC(=O)NCCCn2ccnc2)c(=O)oc2cc3oc4c(c3cc12)CCCC4 | > 10 µM (inactive)
COc1ccc(C(=O)N2CCN(C(=O)C3COc4ccccc4O3)CC2)cc1OC (stereo unspecified) | 4.1 µM
